Results: article PMC10620186, “Recognition and reprogramming of E3 ubiquitin ligase surfaces by α-helical peptides” (Nature Communications, 2023)

Key:
[1] = target: CHIP-TEAD4 ternary complex (Homo sapiens, UniProt Q15561+Q9UNE7); details: SPR ABA, Rmax compared with expected response
[2] = target: CHIP-PPIA ternary complex (Homo sapiens, UniProt P62937+Q9UNE7); details: SPR ABA, immobilized PPIA, 10 μM Helicon
VHL-ELOBC = VHL-ELOBC (Homo sapiens, UniProt P40337+Q15369+Q15370); details: competition FP, 15 nM VHL-ELOBC, 5 nM HXC78, 1 h room temperature, n = 2

| SMILES | ternary complex formation with CHIP and PPIA, of the expected response [2] | also measured |
| --- | --- | --- |
| CC(=O)N1CCC[C@H]1C(=O)N[C@H](C(=O)N1CCC[C@H]1C(=O)N[C@@H](Cc1ccccc1)C(=O)N[C@@H](Cc1ccccc1)C(=O)N[C@@H](Cc1c[nH]c2ccccc12)C(=O)N[C@@H](CCC(=O)O)C(=O)N[C@H]1CSCC(=O)Nc2ccc(cc2)NC(=O)CSC[C@@H](C(=O)N[C@H](C(=O)N[C@@H](C)C(=O)N2CCC[C@H]2C(=O)N[C@@H](CCCNC(=N)N)C(=O)N[C@H](C(=O)N[C@@H](CCC(N)=O)C(N)=O)C(C)C)[C@@H](C)O)NC(=O)[C@H]([C@@H](C)O)NC(=O)[C@H](C)NC(=O)[C@H](C)NC(=O)[C@H](C)NC(=O)[C@H](Cc2ccccc2)NC(=O)[C@H](CCC(N)=O)NC1=O)[C@@H](C)O [Helicon H323] |  | amount of ternary complex formed, CHIP and TEAD4 [1]: 65% |
| CC(=O)N1CCC[C@H]1C(=O)N[C@@H](C)C(=O)N[C@@H](CCC(N)=O)C(=O)N[C@@H](CC(=O)O)C(=O)N[C@@H](CC(=O)O)C(=O)N[C@@H](Cc1c[nH]c2ccccc12)C(=O)N[C@@H](CO)C(=O)N[C@H]1CSCC(=O)Nc2ccc(cc2)NC(=O)CSC[C@@H](C(=O)N[C@@H](CCC(=O)O)C(=O)N[C@@H](CC(N)=O)C(=O)N[C@@H](Cc2ccc(O)cc2)C(=O)N[C@H](C(=O)N[C@@H](CCCNC(=N)N)C(=O)N[C@H](C(N)=O)C(C)C)C(C)C)NC(=O)[C@H](CC(C)C)NC(=O)[C@H](Cc2ccc(O)cc2)NC(=O)[C@H](C)NC(=O)[C@H](C)NC(=O)[C@H](CCC(=O)O)NC(=O)[C@H](C(C)C)NC1=O [Helicon H326] | 3% |  |
| Cc1ncsc1-c1ccc(CNC(=O)[C@@H]2C[C@@H](O)CN2C(=O)[C@@H](NC(=O)C2(C#N)CC2)C(C)(C)C)cc1 [VH298, (2S,4R)−1-((S)−2-(1-Cyanocyclopropanecarboxamido)−3,3-dimethylbutanoyl)−4-hydroxy-N-(4-(4-methylthiazol-5-yl)benzyl)pyrrolidine-2-carboxamide] |  | competition with HXC78 for binding VHL-ELOBC (VHL-ELOBC): potently competes |
| CC[C@H](C)[C@H](NC(=O)[C@@H](NC(=O)CNC(=O)[C@H](CC(=O)O)NC(=O)[C@@H](NC(=O)[C@H](Cc1c[nH]c2ccccc12)NC(=O)[C@@H]1CSCC(=O)Nc2ccc(cc2)NC(=O)CSC[C@H](NC(=O)[C@H](CCSC)NC(=O)[C@@H]2CCCN2C(=O)[C@H](C)NC(=O)[C@H](CC(C)C)NC(=O)[C@H](CCSC)NC(=O)[C@H](CC(=O)O)NC(=O)[C@@H]2CCCN2C(C)=O)C(=O)NCC(=O)N2CCC[C@H]2C(=O)N[C@@H](C)C(=O)N[C@@H](C)C(=O)N[C@@H](CO)C(=O)N[C@@H]([C@@H](C)CC)C(=O)N1)[C@@H](C)CC)C(C)C)C(N)=O [Helicon H328] | 11% |  |
